These results are taken from ChEMBL document CHEMBL5653631, “A Potent and Selective ULK1 Inhibitor Suppresses Autophagy and Sensitizes Cancer Cells to Nutrient Stress” (iScience, 2018).

A word on the inhibition: it is the relative decrease from the control value, in per cent.

In assay [1] the target is Mitogen-activated protein kinase 14 (Homo sapiens) (UniProt Q16539). Put plainly: Inhibition of human recombinant p38alpha at 40 nM related to control ULK1.
Assay [2] addresses T1, Serine/threonine-protein kinase TAO3 (Homo sapiens) (UniProt Q9H2K8).
T1 sequence (whole entry): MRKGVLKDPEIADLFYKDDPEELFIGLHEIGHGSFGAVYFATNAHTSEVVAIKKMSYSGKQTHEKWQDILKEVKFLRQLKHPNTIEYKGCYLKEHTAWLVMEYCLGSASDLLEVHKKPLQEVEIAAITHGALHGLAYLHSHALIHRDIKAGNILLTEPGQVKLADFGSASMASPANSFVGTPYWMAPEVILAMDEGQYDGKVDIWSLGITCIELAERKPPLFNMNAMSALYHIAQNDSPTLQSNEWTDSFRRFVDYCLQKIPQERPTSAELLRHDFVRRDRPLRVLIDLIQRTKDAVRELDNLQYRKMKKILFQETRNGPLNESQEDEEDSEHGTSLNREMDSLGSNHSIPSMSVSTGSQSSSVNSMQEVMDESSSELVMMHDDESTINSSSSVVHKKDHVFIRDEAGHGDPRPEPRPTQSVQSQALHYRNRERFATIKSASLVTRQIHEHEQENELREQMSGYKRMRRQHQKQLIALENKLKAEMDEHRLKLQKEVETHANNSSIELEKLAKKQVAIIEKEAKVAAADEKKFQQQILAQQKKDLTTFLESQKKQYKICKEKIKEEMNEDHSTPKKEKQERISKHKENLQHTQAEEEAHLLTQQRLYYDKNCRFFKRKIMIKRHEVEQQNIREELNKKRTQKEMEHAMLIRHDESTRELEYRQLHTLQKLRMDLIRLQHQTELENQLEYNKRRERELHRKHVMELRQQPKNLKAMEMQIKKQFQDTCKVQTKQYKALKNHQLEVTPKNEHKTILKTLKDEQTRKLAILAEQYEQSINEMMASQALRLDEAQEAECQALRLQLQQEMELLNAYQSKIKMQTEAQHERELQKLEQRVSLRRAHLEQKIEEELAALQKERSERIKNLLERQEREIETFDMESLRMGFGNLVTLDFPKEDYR
Put plainly: Inhibition of human recombinant TAO3 at 40 nM related to control ULK1.

The target of assay [3] is Serine/threonine-protein kinase D2 (Homo sapiens) (UniProt Q9BZL6). Put plainly: Inhibition of human recombinant PKD2 at 40 nM in presence of ATP by radiometric assay relative to control.
Assay [4] has as its target Serine/threonine-protein kinase/endoribonuclease IRE1 (Homo sapiens) (UniProt O75460). Put plainly: Inhibition of human recombinant IRE1 at 500 nM related to control ULK1.
Assay [5] deals with Serine/threonine-protein kinase PRP4 homolog (Homo sapiens) (UniProt Q13523). Put plainly: Inhibition of human recombinant PRP4 at 500 nM in presence of ATP by radiometric assay relative to control.
The target in assay [6] is TRAF2 and NCK-interacting protein kinase (Homo sapiens) (UniProt Q9UKE5). Put plainly: Inhibition of human recombinant TNIK at 500 nM in presence of ATP by radiometric assay relative to control.
Assay [7] addresses Mast/stem cell growth factor receptor Kit (Homo sapiens) (UniProt P10721). Put plainly: Inhibition of human recombinant KIT at 15 nM related to control ULK1.
The target in assay [8] is T2, Protein kinase C zeta type (Homo sapiens) (UniProt Q05513).
T2 sequence (whole entry): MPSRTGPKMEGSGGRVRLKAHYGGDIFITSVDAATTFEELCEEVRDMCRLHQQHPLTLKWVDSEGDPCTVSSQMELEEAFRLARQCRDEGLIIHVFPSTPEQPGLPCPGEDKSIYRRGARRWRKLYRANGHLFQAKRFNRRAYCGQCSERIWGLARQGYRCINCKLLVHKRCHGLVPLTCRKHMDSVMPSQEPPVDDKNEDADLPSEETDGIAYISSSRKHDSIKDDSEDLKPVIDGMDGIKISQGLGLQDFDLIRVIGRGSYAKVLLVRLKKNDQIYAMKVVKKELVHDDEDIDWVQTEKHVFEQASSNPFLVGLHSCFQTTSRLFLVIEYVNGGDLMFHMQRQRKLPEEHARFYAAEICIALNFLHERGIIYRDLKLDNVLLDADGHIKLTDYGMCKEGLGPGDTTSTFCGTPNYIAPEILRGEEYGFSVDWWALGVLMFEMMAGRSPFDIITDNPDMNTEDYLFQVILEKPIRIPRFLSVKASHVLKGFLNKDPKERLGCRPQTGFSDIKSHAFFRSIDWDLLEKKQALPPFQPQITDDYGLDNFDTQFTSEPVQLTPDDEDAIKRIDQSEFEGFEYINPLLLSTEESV
Put plainly: Inhibition of human recombinant PKCz at 15 nM related to control ULK1.

The target in assay [9] is T3, Serine/threonine-protein kinase TAO1 (Homo sapiens) (UniProt Q7L7X3).
T3 sequence (whole entry): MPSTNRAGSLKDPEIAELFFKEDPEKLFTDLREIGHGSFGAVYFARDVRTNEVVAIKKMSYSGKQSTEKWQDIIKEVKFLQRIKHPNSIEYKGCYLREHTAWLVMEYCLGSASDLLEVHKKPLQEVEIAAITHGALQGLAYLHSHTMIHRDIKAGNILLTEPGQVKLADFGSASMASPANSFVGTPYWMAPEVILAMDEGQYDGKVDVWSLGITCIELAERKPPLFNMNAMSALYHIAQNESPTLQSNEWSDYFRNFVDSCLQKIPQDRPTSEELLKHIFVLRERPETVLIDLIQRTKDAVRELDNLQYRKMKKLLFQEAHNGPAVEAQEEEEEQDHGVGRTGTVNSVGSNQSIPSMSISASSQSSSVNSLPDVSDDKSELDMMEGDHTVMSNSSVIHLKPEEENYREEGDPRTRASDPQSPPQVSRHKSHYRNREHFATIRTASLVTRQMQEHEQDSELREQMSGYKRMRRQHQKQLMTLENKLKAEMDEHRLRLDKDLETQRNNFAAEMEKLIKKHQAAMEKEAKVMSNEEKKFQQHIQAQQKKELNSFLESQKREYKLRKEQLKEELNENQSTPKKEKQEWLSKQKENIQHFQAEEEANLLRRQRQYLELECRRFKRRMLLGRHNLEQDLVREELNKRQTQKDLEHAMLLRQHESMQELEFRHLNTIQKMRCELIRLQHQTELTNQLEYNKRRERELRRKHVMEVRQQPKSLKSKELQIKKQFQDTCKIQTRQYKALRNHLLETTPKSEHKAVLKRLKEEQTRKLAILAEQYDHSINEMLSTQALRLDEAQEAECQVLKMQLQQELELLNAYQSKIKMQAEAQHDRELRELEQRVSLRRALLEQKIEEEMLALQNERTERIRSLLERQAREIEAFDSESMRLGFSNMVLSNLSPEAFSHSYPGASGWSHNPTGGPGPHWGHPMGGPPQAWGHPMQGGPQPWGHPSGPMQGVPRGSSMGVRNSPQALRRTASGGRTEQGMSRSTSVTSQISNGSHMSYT
Put plainly: Inhibition of human recombinant TAO1 at 15 nM related to control ULK1.

SMILES strings stand for the structures.

Chain of Mast/stem cell growth factor receptor Kit (Homo sapiens) (P10721 whole entry): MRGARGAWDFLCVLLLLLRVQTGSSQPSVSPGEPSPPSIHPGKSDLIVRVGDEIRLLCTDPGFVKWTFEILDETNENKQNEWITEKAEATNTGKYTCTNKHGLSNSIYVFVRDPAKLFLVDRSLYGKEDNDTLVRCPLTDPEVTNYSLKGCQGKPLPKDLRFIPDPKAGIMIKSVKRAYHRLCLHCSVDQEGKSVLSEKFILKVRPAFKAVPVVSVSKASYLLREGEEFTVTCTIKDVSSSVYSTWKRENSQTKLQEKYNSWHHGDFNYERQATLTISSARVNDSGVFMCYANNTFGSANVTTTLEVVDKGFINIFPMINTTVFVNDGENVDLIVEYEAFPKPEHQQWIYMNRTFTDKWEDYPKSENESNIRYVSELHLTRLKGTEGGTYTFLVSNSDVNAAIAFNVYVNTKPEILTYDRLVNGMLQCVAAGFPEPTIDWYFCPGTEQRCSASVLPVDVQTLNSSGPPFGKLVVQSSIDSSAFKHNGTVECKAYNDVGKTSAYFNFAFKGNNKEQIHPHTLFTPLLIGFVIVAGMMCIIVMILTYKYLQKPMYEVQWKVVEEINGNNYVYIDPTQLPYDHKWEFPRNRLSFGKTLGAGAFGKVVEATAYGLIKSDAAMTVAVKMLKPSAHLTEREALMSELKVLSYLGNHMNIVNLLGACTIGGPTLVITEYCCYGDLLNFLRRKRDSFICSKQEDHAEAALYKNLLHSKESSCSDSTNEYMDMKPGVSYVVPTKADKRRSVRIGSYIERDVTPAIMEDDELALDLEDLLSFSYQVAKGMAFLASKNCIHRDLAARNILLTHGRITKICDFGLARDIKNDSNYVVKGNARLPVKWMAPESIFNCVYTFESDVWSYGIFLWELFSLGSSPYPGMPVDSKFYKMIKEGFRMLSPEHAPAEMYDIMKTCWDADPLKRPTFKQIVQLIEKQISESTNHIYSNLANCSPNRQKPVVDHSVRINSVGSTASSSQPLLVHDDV
Chain of Serine/threonine-protein kinase PRP4 homolog (Homo sapiens) (Q13523 whole entry): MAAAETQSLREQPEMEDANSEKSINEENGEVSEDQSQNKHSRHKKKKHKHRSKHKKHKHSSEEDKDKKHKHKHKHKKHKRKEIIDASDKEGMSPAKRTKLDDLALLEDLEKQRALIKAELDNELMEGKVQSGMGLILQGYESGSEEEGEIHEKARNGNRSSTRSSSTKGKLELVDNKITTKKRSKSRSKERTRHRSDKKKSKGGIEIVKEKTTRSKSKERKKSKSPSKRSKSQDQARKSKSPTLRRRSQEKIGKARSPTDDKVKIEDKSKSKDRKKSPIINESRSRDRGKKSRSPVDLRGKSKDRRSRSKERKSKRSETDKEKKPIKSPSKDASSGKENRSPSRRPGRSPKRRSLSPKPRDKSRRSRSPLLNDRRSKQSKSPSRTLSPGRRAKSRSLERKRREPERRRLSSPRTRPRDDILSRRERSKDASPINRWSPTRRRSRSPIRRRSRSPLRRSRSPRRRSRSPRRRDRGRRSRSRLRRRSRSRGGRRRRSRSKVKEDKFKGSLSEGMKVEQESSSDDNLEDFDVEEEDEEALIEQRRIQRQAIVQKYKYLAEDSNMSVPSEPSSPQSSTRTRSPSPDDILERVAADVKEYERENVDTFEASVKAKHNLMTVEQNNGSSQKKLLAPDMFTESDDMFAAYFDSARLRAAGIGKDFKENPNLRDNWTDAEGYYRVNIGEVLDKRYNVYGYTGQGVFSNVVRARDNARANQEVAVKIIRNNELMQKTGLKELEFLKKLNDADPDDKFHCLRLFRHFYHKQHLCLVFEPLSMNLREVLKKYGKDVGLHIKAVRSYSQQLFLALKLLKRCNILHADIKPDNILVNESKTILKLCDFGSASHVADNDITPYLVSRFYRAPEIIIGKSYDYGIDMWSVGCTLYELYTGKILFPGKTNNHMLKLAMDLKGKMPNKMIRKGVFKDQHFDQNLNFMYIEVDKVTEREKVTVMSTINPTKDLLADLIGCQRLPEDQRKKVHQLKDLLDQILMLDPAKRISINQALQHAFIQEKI
Chain of Serine/threonine-protein kinase D2 (Homo sapiens) (Q9BZL6 whole entry, looked up): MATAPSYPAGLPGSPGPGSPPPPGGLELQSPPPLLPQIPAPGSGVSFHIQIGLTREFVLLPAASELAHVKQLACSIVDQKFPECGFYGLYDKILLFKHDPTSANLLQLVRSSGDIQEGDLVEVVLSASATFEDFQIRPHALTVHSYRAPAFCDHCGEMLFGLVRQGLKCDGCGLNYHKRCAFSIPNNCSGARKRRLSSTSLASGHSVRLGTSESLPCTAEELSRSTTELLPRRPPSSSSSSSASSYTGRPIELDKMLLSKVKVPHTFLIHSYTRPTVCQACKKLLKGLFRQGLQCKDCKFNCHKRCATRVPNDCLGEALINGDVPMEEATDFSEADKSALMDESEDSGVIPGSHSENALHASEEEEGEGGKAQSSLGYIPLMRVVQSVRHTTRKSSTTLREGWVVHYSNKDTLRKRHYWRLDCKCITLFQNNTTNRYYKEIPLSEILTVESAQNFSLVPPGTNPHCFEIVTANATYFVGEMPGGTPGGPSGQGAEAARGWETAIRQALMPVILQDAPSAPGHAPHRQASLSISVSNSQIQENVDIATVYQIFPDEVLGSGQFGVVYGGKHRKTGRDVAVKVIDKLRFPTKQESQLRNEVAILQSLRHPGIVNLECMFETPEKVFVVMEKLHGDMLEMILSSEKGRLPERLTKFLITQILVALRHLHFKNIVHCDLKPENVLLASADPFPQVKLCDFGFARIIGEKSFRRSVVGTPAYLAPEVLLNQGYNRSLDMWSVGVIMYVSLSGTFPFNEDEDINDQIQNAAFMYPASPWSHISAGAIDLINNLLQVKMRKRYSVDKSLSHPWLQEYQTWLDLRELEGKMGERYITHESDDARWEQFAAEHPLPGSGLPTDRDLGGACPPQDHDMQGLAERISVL
Chain of Serine/threonine-protein kinase/endoribonuclease IRE1 (Homo sapiens) (O75460 19-977 limits assumed): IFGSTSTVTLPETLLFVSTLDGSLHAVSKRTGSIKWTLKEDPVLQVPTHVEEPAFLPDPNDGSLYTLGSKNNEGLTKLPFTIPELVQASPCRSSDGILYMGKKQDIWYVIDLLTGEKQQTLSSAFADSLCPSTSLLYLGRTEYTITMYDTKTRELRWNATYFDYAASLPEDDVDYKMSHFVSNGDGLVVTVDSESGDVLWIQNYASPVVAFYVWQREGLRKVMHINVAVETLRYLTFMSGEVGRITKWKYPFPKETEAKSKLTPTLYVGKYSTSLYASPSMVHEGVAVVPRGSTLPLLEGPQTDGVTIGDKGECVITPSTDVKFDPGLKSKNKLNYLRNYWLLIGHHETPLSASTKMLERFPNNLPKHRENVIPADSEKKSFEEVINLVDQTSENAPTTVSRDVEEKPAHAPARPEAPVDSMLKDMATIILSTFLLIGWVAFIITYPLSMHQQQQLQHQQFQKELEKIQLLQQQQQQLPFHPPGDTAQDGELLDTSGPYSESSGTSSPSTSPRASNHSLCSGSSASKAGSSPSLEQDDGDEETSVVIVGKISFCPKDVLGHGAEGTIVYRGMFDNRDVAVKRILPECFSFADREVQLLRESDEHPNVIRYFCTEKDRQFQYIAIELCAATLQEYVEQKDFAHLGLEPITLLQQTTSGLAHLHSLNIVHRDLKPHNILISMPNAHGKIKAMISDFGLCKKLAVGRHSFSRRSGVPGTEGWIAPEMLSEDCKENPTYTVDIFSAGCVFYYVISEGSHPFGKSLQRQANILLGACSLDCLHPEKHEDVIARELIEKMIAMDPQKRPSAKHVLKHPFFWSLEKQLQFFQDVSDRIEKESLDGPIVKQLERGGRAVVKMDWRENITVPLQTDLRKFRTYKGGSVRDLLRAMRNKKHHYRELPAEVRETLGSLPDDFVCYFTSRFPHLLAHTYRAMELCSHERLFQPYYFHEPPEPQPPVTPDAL
Chain of Mitogen-activated protein kinase 14 (Homo sapiens) (Q16539 whole entry): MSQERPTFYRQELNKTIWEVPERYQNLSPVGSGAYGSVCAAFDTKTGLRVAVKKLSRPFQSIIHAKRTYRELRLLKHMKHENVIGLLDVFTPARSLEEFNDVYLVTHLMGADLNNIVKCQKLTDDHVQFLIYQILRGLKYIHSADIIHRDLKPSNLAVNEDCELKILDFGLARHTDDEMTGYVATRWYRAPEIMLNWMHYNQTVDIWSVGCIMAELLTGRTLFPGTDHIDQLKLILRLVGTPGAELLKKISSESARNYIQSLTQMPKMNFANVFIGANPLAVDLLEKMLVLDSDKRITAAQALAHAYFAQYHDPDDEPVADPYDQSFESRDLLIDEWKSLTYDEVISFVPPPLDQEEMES

In the case of `O=C(N[C@@H](C1CC1)C(F)(F)F)c1cc(-c2cnn3cc(-c4ccc(F)cc4)cnc23)cs1`, the fold change (FC) in assay [1] came to 0.01; in [2] it was 0. In addition, the inhibition in assay [3] came to 6%.

Turning to `CNC(=O)c1ccccc1Oc1nc(Nc2cc(OC)c(OC)c(OC)c2)ncc1Br`, the fold change (FC) in assay [4] stood at 0. The inhibition in assay [5] was 2%; in assay [6], 4%.

Turning to `CC(C)[C@H](NC(=O)c1cc(-c2cnn3cc(-c4ccc(OCCN5CCCCC5)cc4)cnc23)cs1)C(F)(F)F`, the fold change (FC) in assay [7], in assay [8] and in assay [9] was 0 in each case.
